Laboratory results from ChEMBL document CHEMBL1148929, “Phytochemical studies on Stemona burkillii prain: two new dihydrostemofoline alkaloids” (J Nat Prod, 2004).

Legend:
[1] = system: Cladosporium cladosporioides; assay: Antifungal activity against Cladosporium cladosporioides assessed as inhibition of spore germination; format: functional, organism-based
[2] = system: Artemia; assay: Toxicity to brine shrimp; format: organism-based; settings: in vivo

SMILES	EC50 [1] [ppm]	LC50 [2] [ppm]
CCCC[C@@]12C3CCN1[C@H]1C[C@H]2O[C@@]32O/C(=C3\OC(=O)C(C)=C3OC)[C@@H](C)[C@H]12 [STEMOFOLINE]	> 219	> 33
CC[C@H](O)C[C@@]12[C@@H]3C[C@H]4[C@H]5[C@H](C)/C(=C6/OC(=O)C(C)=C6OC)O[C@]5(O3)[C@H]1CCN42 [2'-HYDROXYSTEMOFOLINE]	> 219	> 33
